36 compounds from patent publication US12428413B2 (CHDI Foundation, Inc., priority 2019, dated 2025) can be followed below.

For test [1], the system named is cellular ROCK activity (cofilin phosphorylation at Ser3) in A7r5 rat smooth muscle cells. The test can be described thus: Cellular ROCK activity: cofilin (Ser3) phosphorylation, In-Cell Western assay. Format: cell-based. The conditions noted are these: Rattus norvegicus, A7R5, 1 h, 1 hour compound incubation, phospho-cofilin (Ser3), read-out: CELL_IC50. The procedure: The potency of Rho-associated protein kinase (ROCK) inhibitors was quantified by measuring cofilin phosphorylation levels at Serine 3 (Ser3) as a measure of cellular ROCK activity by In-Cell Western assay. […] The assay plate was imaged and quantified on the Odyssey imager (LICOR Biosciences).
ROCK inhibitor compound plate preparation. […] Stock compounds and control are added directly to ECHO plate (Labcyte) by Janus.
A7r5 cell culture and plating. A7r5 cells were cultured according to standard cell culture protocols in A7r5 growth media (DMEM with Glutamax and 10% FBS). […] 45 μl of re-suspended A7r5 cells were plated at 3000 cells/well in a sterile, μclear, black, F-bottom, 384-well microplate (Greiner bio-one). Seeded cells allowed to settle in wells on the bench for 1 hour before incubation at 37° C., 5% CO2 overnight.
Assay reagent and antibody preparations. Wash buffer was prepared by addition of Tween-20 to Dulbecco's Phosphate Buffered Saline (DPBS) (1×) without calcium and magnesium to make 1% Tween-20 as final concentration. Blocking buffer was prepared by addition of TritonX-100 to SeaBlock buffer (ThermoFisher) to make 0.3% TritonX-100 as final concentration. […] Secondary antibody mix was prepared by diluting donkey anti-rabbit 800CW antibody (LICOR Biosciences) 1:1000 in SeaBlock buffer.
Assay procedure. Compound plate was diluted by addition of 19 μl/well compound dilution buffer (DMEM with Glutamax) using 125 μl 16-channel Matrix electronic pipette. 5 μl diluted compound was stamped from compound plate to assay plate containing A7r5 cells using Bravo (384-well head from Agilent) liquid handler and incubated at 37° C., 5% CO2 for 1 hour. Cells were fixed by addition of 5 μl 37% formaldehyde using 125 μl 16-channel Matrix electronic pipette and incubation for 20 min at room temperature. The assay plate was washed 5× with 60 μl/well wash buffer. […] Next, the assay plate was sealed, centrifuged at 1000 rpm for 5 seconds and incubated at 4° C. overnight on an orbital shaker at 300 rpm. […] The assay plate was centrifuged at 1000 rpm for 5 seconds and incubated on an orbital shaker at 300 rpm for 60 min at room temperature. Finally, assay plate was washed and wells left empty before measurement of 700 nm and 800 nm fluorescence intensities on Odyssey imager set at 4.0 mm focus offset.

Test [2] addresses human catalytic domain ROCK II protein (amino acids 5-554) with a N-terminal GST tag (Homo sapiens, UniProt O75116). The test can be described thus: biochemical.
Procedure: The potency of Rho-associated protein kinase (ROCK) II inhibitors was quantified by measuring ROCKII kinase domain enzymatic activity using ADP-Glo™ Kinase Assay format. […] ADP-Glo™ Reagent was added that terminates ROCKII reaction and depletes remaining ATP. Kinase Detection Reagent was added to convert ADP to ATP and allow newly synthesized ATP to be measured using luciferase/luciferin reaction. The light generated correlates to the amount of ADP generated in the ROCKII biochemical reaction, which is indicative of ROCKII activity.
ROCK inhibitor compound plate preparation. Lyophilized ROCK inhibitors were re-suspended to a final concentration of 10 mM in 100% dimethyl sulfoxide (DMSO) and control reference compound, Fasudil HCl, to a final concentration of 100 mM in 100% DMSO using Janus automated liquid handler workstation (Perkin Elmer) and were stored at room temperature under nitrogen. Stock compounds and controls were added directly to ECHO plate (Labcyte) by Janus. […]
Assay procedure. […] The assay plate was further incubated in a polystyrene box for 30 min at room temperature without the seal and luminescence signal was measured using EnVision (Perkin Elmer) in top read mode.

A value given as a limit tells only on which side of the number the result lay.

Sequence of human catalytic domain ROCK II protein (amino acids 5-554) with a N-terminal GST tag (O75116 5-554): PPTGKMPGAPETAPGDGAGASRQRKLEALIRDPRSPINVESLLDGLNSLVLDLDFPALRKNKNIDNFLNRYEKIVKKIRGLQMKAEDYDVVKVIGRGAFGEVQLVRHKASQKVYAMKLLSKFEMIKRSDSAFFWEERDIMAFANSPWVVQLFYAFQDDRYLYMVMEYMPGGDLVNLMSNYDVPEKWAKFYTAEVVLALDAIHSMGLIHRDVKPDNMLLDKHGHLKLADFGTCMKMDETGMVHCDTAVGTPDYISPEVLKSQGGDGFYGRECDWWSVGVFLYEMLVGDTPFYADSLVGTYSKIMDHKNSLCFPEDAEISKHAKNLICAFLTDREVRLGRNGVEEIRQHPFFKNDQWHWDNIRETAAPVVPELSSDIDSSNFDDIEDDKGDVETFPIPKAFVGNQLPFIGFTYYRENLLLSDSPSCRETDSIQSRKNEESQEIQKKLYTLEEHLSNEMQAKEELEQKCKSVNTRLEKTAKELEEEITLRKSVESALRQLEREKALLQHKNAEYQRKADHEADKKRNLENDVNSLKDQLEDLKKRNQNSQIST

Take `COc1ccc(Cl)c([C@@H](C)NC(=O)N2CCN(c3ccncc3F)C[C@H]2C)c1` [Example 49, (R)—N—((R)-1-(2-Chloro-5-methoxyphenyl)ethyl)-4-(3-fluoropyridin-4-yl)-2-methylpiperazine-1-carboxamide]: the IC50 in test [1] was 164 nM. In the case of `C[C@@H]1CN(C(=O)N[C@H](C)c2ccc(F)cc2Cl)CCN1c1ccnc(F)c1` [Example 14, (R)—N—((R)-1-(2-Chloro-4-fluorophenyl)ethyl)-4-(2-fluoropyridin-4-yl)-3-methylpiperazine-1-carboxamide], the IC50 in test [2] amounted to 3410 nM. On to `C[C@@H](NC(=O)N1CCN(c2ccncc2F)CC1)c1ccc(F)cc1Cl` [Example 21, (R)—N-(1-(2-Chloro-4-fluorophenyl)ethyl)-4-(3-fluoropyridin-4-yl)piperazine-1-carboxamide], for which the IC50 in test [1] was 1780 nM. On the same count and under the same terms, next, `C[C@@H]1CN(c2ccncc2F)CCN1C(=O)N[C@H](C)c1cccc2ccn(C)c12` [Example 63, (R)-4-(3-Fluoropyridin-4-yl)-2-methyl-N—((R)-1-(1-methyl-1H-indol-7-yl)ethyl)piperazine-1-carboxamide]: 44.2 nM; `C[C@@H]1CN(c2ccnc(F)c2)CCN1C(=O)N[C@H](C)c1ccccc1Cl` [Example 109]: 1090 nM. Still for that read-out and setting: next, `Cc1cnc2cccc([C@H](C)NC(=O)N3CCN(c4ccnc(F)c4)C[C@H]3C)n12` [Example 10, (R)-4-(2-Fluoropyridin-4-yl)-2-methyl-N—((S)-1-(3-methylimidazo[1,2-a]pyridin-5-yl)ethyl)piperazine-1-carboxamide]: not below 5000 nM; `COc1cccc([C@@H](C)NC(=O)N2CCN(c3ccnc(F)c3)[C@@H](C)C2)c1` [Example 117]: 107 nM; `C[C@@H]1CN(c2c(F)cncc2F)CCN1C(=O)N[C@H](C)c1cccc2c1CCO2` [Example 156]: 4.9 nM. Same read-out and setting: the figure for `C[C@@H]1CN(c2ccncc2F)CCN1C(=O)N[C@H](C)c1ccccc1Br` [Example 45, (R)—N—((R)-1-(2-Bromophenyl)ethyl)-4-(3-fluoropyridin-4-yl)-2-methylpiperazine-1-carboxamide] is 125 nM; for `C[C@H]1CN(C(=O)NCc2cccc(OC(F)F)c2)CCN1c1ccncc1F` [Example 149] it is 2740 nM; for `C[C@@H]1CN(c2ccncc2F)CCN1C(=O)NCc1cccc2ncccc12` [Example 80, (R)-4-(3-Fluoropyridin-4-yl)-2-methyl-N-(quinolin-5-ylmethyl)piperazine-1-carboxamide] it is 75.5 nM. In the case of `C[C@@H](NC(=O)N1CCN(c2ccnc(F)c2)CC1)c1cccc2occc12` [Example 104], the IC50 in test [1] is 830 nM. Still for that read-out and setting: next, `C[C@@H]1CN(c2ccncc2F)CCN1C(=O)N[C@H](C)c1cccc2nccn12` [Example 58, (R)-4-(3-fluoropyridin-4-yl)-N—((R)-1-(imidazo[1,2-a]pyridin-5-yl)ethyl)-2-methylpiperazine-1-carboxamide]: 17.6 nM; `COc1cccc([C@@H](C)NC(=O)N2CCN(c3ccnc(F)c3)CC2)c1` [Example 101]: 871 nM; `C[C@@H](NC(=O)N1CCN(c2ccnc(F)c2)CC1)c1cccc2c1CCO2` [Example 102]: 198 nM. Still for that read-out and setting: the figure for `COc1cc(F)cc([C@@H](C)NC(=O)N2CCN(c3ccncc3F)C[C@H]2C)c1` [Example 51, (R)—N—((R)-1-(3-Fluoro-5-methoxyphenyl)ethyl)-4-(3-fluoropyridin-4-yl)-2-methylpiperazine-1-carboxamide] is 15.2 nM; for `O=C(NCc1cccc2occc12)N1CCN(c2ccncc2F)CC1` [Example 38, N-(Benzofuran-4-ylmethyl)-4-(3-fluoropyridin-4-yl)piperazine-1-carboxamide] it is 761 nM. Turning to `CC[C@@H]1CN(c2ccncc2F)CCN1C(=O)N[C@H](C)c1cccc(OC)c1` [Example 83, (R)-2-Ethyl-4-(3-fluoropyridin-4-yl)-N—((R)-1-(3-methoxyphenyl)ethyl)piperazine-1-carboxamide], the IC50 in test [1] was determined as 31.4 nM.

With `C[C@@H](NC(=O)N1CCN(c2ccncc2F)CC1)c1cccc2ccn(C)c12` [Example 32, (R)-4-(3-fluoropyridin-4-yl)-N-(1-(1-methyl-1H-indol-7-yl)ethyl)piperazine-1-carboxamide], the IC50 in test [1] stood at 410 nM. Same read-out and setting: the figure for `C[C@@H]1CN(c2ccnc(F)c2)CCN1C(=O)N[C@H](C)c1cccc(OC(F)F)c1` [Example 108] is 638 nM; for `Cc1nc2c([C@H](C)NC(=O)N3CCN(c4ccncc4F)C[C@H]3C)cccc2o1` [Example 70, (R)-4-(3-Fluoropyridin-4-yl)-2-methyl-N—((S)-1-(2-methylbenzo[d]oxazol-4-yl)ethyl)piperazine-1-carboxamide] it is 3000 nM. As to `COc1cccc([C@@H](C)NC(=O)N2CCN(c3ccncc3F)C[C@H]2C)c1Cl` [Example 135], the IC50 in test [1] is 1040 nM.

As for `C[C@@H](NC(=O)N1CCN(c2ccncc2F)CC1)c1ccccc1Br` [Example 19, (R)—N-(1-(2-Bromophenyl)ethyl)-4-(3-fluoropyridin-4-yl)piperazine-1-carboxamide], the IC50 in test [1] amounted to 1470 nM.

Turning to `COc1cc(F)cc([C@@H](C)NC(=O)N2CCN(c3ccncc3F)CC2)c1` [Example 128], the IC50 in test [1] came to 163 nM. The same measure, in the same setting: next, `C[C@@H]1CN(c2ccncc2F)CCN1C(=O)NCc1cccc2occc12` [Example 76, (R)—N-(Benzofuran-4-ylmethyl)-4-(3-fluoropyridin-4-yl)-2-methylpiperazine-1-carboxamide]: 86.1 nM; `Cc1cc2c([C@@H](C)NC(=O)N3CCN(c4ccnc(F)c4)C[C@H]3C)cccc2o1` [Example 4, (R)-4-(2-Fluoropyridin-4-yl)-2-methyl-N—((R)-1-(2-methylbenzofuran-4-yl)ethyl)piperazine-1-carboxamide]: 356 nM. On the same count and under the same terms, next, `C[C@H](NC(=O)N1CCN(c2ccncc2F)C[C@H]1C)c1cccc(F)c1Cl` [Example 48, (R)—N—((S)-1-(2-chloro-3-fluorophenyl)ethyl)-4-(3-fluoropyridin-4-yl)-2-methylpiperazine-1-carboxamide]: 279 nM.

In the case of `C[C@@H]1CN(c2ccncc2F)CCN1C(=O)N[C@H](C)c1ccccc1Cl` [Example 42, (R)—N—((R)-1-(2-Chlorophenyl)ethyl)-4-(3-fluoropyridin-4-yl)-2-methylpiperazine-1-carboxamide], the IC50 in test [1] came to 73 nM. The same measure, in the same setting: the figure for `C[C@@H]1CN(c2ccncc2F)CCN1C(=O)NCc1cccc2c1OCO2` [Example 75, (R)—N-(Benzo[d][1,3]dioxol-4-ylmethyl)-4-(3-fluoropyridin-4-yl)-2-methylpiperazine-1-carboxamide] is 150 nM; for `C[C@@H]1CN(c2ccncc2F)CCN1C(=O)N[C@H](C)c1cccnc1` [Example 52, (R)-4-(3-Fluoropyridin-4-yl)-2-methyl-N—((R)-1-(pyridin-3-yl)ethyl)piperazine-1-carboxamide] it is 234 nM. On the same count and under the same terms, the figure for `Cc1cc2c([C@@H](C)NC(=O)N3CCN(c4ccncc4F)C[C@H]3C)cccc2o1` [Example 60, (R)-4-(3-Fluoropyridin-4-yl)-2-methyl-N—((R)-1-(2-methylbenzofuran-4-yl)ethyl)piperazine-1-carboxamide] is 33.1 nM. Same read-out and setting: next, `C[C@@H]1CN(c2ccncc2F)CCN1C(=O)N[C@H](C)c1cccc(F)c1Cl` [Example 47, (R)—N—((R)-1-(2-Chloro-3-fluorophenyl)ethyl)-4-(3-fluoropyridin-4-yl)-2-methylpiperazine-1-carboxamide]: 131 nM; `C[C@@H](NC(=O)N1CCN(c2ccncc2F)[C@@H](C)C1)c1cccc2occc12` [Example 148]: 71.6 nM.

`COc1cccc([C@H](C)NC(=O)N2CCN(c3ccncc3F)C[C@H]2C)c1Cl` [Example 140]: in test [1], the IC50 stood at 2620 nM.

For the compound `C[C@@H]1CN(c2ccncc2F)CCN1C(=O)NCc1cccc2c1cnn2C` [Example 79, (R)-4-(3-Fluoropyridin-4-yl)-2-methyl-N-((1-methyl-1H-indazol-4-yl)methyl)piperazine-1-carboxamide], in test [1], the IC50 is 2010 nM. Still for that read-out and setting: the figure for `Cc1nc2c([C@@H](C)NC(=O)N3CCN(c4ccncc4F)C[C@H]3C)cccc2o1` [Example 69, (R)-4-(3-Fluoropyridin-4-yl)-2-methyl-N—((R)-1-(2-methylbenzo[d]oxazol-4-yl)ethyl)piperazine-1-carboxamide] is 104 nM.
